Blank lines part the entries; values can stand above or below the molecule they belong to.
Columns and labels:
[1] = biological target: T1, 3-phosphoinositide-dependent protein kinase 1 (Homo sapiens, UniProt O15530)
T1 sequence (O15530 whole entry): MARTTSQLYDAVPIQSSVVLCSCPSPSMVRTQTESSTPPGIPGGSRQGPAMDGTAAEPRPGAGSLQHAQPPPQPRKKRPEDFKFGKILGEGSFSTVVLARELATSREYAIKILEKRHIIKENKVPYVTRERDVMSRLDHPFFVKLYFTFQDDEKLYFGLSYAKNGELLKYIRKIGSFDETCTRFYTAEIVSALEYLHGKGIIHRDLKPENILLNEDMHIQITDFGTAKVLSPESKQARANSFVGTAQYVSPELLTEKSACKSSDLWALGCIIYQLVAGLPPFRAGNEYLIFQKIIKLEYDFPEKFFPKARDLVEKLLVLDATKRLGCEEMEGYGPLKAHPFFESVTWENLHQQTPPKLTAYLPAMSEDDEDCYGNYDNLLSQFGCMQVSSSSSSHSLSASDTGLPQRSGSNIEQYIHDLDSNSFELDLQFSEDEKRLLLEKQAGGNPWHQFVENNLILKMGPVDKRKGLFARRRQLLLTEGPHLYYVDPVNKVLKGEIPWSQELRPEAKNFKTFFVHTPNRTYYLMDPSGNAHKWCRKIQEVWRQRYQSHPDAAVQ
Description: Inhibition of His-tagged-truncated human PDK1 preincubated with substrate biotinylated-AKT3 for 30 mins measured after 3 hrs by Scintillation proximity assay

[2] = biological target: RAC-alpha serine/threonine-protein kinase (Homo sapiens, UniProt P31749); experiment: Inhibition of AKT1
[3] = biological target: T2, Mitogen-activated protein kinase kinase kinase 5 (Homo sapiens, UniProt Q99683); experiment: Inhibition of ASK1
T2 sequence (Q99683 whole entry): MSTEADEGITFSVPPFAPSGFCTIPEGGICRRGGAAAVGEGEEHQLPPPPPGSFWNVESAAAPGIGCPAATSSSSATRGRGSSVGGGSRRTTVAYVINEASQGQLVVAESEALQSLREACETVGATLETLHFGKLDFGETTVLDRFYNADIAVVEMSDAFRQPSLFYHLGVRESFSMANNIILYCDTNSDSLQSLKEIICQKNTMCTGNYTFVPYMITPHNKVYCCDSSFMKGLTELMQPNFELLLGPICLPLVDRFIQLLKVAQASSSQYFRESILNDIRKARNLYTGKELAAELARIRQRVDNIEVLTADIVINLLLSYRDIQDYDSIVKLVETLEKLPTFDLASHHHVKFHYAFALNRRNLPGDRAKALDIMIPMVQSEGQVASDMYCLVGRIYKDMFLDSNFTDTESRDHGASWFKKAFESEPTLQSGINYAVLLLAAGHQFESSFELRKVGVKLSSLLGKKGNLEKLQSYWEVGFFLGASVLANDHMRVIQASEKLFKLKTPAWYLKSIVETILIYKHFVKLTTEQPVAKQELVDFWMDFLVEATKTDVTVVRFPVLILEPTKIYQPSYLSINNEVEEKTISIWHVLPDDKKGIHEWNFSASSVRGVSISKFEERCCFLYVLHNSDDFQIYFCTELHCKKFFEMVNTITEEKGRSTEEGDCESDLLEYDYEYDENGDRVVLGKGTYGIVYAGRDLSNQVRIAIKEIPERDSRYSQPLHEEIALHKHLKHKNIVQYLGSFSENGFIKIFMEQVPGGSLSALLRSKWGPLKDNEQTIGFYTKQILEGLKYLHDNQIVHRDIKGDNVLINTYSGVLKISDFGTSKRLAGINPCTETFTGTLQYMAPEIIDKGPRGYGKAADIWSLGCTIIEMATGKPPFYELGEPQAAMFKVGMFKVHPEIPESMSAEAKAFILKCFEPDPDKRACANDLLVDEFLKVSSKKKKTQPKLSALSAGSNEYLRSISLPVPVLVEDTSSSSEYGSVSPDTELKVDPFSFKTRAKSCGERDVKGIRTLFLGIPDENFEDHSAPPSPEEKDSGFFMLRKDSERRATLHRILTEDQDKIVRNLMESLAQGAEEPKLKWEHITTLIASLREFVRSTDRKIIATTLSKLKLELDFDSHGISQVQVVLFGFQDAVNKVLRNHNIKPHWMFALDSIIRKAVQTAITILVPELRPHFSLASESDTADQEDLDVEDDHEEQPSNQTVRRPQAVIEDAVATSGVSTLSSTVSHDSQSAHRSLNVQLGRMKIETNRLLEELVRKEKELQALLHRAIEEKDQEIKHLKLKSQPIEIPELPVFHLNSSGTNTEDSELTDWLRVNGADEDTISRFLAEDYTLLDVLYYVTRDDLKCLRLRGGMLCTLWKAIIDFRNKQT

Aurora kinase A = biological target: T3, Aurora kinase A (Homo sapiens, UniProt O14965); experiment: Inhibition of Aurora A
T3 sequence (O14965 whole entry): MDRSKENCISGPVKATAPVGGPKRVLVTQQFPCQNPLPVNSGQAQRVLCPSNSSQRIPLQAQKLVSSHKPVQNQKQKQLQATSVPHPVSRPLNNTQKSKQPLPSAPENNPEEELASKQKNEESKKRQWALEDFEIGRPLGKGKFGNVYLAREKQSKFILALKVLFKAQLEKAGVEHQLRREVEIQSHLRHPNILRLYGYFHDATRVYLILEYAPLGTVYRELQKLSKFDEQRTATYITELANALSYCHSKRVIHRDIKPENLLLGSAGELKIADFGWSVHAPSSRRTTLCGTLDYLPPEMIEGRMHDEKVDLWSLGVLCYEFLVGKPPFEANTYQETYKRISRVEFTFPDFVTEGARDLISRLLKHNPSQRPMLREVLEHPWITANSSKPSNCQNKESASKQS

[4] = biological target: Cyclin-dependent kinase 2 (Homo sapiens, UniProt P24941); experiment: Inhibition of CDK2
[5] = biological target: T4, Serine/threonine-protein kinase Chk1 (Homo sapiens, UniProt O14757); experiment: Inhibition of CHK1
T4 sequence (O14757 whole entry): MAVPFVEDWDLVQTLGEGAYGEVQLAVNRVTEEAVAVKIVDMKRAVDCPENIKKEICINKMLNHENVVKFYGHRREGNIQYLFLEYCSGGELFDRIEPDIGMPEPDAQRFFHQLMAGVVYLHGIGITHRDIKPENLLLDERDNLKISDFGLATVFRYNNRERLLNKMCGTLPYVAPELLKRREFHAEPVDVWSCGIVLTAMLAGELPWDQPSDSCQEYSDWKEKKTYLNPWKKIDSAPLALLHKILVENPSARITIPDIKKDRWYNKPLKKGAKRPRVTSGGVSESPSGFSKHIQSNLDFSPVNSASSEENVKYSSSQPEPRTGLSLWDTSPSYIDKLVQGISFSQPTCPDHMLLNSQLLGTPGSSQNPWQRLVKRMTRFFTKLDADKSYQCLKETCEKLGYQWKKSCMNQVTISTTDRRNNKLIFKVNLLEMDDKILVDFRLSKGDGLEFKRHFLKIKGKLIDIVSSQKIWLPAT

[6] = biological target: Insulin-like growth factor 1 receptor (Homo sapiens, UniProt P08069); experiment: Inhibition of IGF1R
[7] = biological target: T5, Inhibitor of nuclear factor kappa-B kinase subunit alpha (Homo sapiens, UniProt O15111); experiment: Inhibition of IKK1
T5 sequence (O15111 whole entry): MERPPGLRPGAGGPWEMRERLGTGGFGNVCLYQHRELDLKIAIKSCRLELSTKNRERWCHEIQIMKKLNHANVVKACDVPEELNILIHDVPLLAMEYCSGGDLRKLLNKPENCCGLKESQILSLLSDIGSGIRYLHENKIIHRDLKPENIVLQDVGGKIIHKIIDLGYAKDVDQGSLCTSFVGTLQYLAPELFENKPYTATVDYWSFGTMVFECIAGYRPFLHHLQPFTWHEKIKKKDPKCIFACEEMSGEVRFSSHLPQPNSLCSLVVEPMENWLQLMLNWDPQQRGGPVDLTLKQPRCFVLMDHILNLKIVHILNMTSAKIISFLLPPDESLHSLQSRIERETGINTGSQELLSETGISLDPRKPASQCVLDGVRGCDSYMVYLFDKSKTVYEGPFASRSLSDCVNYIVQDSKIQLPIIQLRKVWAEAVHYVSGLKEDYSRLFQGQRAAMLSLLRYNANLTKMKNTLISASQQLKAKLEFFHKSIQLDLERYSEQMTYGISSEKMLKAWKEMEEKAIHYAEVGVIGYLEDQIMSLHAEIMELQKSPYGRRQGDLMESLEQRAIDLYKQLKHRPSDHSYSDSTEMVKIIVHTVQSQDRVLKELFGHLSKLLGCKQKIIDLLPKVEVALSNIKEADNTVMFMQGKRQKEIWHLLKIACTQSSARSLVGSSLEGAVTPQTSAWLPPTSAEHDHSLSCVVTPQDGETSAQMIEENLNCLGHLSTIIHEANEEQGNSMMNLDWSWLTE

Insulin receptor = Insulin receptor (Homo sapiens, UniProt P06213); experiment: Inhibition of INS
[8] = biological target: T6, Tyrosine-protein kinase JAK3 (Homo sapiens, UniProt P52333); experiment: Inhibition of JAK3
T6 sequence (P52333 whole entry): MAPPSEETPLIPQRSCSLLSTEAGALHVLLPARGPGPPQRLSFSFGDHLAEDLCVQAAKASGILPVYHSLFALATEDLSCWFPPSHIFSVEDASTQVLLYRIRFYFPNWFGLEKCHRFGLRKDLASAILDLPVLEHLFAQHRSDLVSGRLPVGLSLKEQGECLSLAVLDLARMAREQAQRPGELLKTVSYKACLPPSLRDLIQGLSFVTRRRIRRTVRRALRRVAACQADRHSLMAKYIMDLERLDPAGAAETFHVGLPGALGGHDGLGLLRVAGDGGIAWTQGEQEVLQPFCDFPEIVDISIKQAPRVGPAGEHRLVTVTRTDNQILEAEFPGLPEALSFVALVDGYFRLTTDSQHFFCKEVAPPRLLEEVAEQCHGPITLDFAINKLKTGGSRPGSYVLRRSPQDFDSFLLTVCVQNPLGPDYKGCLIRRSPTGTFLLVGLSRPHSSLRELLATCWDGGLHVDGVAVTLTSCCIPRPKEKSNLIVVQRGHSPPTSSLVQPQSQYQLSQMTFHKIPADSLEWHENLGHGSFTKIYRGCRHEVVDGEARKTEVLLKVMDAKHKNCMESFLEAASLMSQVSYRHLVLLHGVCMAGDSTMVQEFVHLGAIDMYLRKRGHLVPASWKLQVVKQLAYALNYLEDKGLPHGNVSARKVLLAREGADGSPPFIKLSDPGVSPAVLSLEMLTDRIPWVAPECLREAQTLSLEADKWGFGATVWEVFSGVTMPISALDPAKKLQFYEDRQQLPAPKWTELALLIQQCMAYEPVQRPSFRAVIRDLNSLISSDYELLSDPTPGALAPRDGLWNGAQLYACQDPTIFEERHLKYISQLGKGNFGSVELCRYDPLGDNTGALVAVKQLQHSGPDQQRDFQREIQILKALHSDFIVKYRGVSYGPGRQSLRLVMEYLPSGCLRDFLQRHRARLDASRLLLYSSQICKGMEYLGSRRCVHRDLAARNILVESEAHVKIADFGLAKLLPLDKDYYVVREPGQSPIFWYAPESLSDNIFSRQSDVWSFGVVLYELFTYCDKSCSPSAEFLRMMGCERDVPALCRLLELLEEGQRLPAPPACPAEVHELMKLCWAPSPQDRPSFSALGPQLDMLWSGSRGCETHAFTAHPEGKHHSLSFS

[9] = biological target: Mitogen-activated protein kinase 8 (Homo sapiens, UniProt P45983); experiment: Inhibition of JNK1
[10] = biological target: Ribosomal protein S6 kinase beta-1 (Homo sapiens, UniProt P23443); experiment: Inhibition of p70S6K
[11] = biological target: Phosphatidylinositol 4,5-bisphosphate 3-kinase catalytic subunit alpha isoform (Homo sapiens, UniProt P42336); experiment: Inhibition of PI3Kalpha
[12] = biological target: T7, Serine/threonine-protein kinase Sgk1 (Homo sapiens, UniProt O00141); experiment: Inhibition of SGK1
T7 sequence (O00141 whole entry): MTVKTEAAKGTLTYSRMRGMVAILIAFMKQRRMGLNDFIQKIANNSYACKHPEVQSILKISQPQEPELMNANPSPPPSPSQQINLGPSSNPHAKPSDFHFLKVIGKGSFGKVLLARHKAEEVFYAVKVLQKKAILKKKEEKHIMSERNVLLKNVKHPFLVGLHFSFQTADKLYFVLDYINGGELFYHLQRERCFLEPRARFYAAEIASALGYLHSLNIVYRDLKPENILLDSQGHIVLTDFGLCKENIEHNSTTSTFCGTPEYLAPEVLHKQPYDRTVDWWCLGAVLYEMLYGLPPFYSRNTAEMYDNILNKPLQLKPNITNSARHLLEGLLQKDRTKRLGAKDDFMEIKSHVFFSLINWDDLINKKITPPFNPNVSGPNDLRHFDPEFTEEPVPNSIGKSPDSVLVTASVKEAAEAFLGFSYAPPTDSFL

[13] = biological target: Vascular endothelial growth factor receptor 2 (Homo sapiens, UniProt P35968); experiment: Inhibition of VEGFR2
[14] = biological target: T1, 3-phosphoinositide-dependent protein kinase 1; experiment: Inhibition of human PDK1 preincubated with substrate biotinylated PDKtide for 30 mins measured after 4 hrs by Scintillation proximity assay

Phosphatidylinositol 4,5-bisphosphate 3-kinase catalytic subunit alpha isoform, sequence (P42336 whole entry, canonical isoform): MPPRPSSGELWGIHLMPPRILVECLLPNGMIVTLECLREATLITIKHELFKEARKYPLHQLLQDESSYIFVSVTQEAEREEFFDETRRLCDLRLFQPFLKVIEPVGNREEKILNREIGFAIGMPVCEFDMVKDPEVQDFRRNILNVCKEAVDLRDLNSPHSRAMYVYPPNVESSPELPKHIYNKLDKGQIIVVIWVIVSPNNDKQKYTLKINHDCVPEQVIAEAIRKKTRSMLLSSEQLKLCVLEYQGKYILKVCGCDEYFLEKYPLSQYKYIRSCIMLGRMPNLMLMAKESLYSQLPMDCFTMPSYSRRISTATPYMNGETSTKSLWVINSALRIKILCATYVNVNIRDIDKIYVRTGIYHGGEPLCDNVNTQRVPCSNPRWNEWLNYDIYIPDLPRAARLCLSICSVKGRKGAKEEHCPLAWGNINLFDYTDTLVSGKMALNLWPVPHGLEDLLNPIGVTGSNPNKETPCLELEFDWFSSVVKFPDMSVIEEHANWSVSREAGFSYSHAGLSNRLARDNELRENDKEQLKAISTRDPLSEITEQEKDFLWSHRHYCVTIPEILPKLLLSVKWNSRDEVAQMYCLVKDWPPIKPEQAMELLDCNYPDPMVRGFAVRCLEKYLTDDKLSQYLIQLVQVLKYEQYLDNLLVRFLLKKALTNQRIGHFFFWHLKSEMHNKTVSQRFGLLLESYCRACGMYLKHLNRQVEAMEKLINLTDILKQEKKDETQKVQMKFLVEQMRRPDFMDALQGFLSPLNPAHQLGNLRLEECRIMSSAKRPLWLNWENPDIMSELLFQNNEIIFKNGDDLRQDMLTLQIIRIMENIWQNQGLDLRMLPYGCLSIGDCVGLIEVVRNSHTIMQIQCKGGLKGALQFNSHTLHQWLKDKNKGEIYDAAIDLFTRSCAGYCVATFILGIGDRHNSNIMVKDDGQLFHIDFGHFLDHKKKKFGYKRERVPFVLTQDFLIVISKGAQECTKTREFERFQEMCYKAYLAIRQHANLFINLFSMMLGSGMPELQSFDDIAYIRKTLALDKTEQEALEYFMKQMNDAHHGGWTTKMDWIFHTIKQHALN
Insulin-like growth factor 1 receptor, sequence (P08069 31-736 limits assumed): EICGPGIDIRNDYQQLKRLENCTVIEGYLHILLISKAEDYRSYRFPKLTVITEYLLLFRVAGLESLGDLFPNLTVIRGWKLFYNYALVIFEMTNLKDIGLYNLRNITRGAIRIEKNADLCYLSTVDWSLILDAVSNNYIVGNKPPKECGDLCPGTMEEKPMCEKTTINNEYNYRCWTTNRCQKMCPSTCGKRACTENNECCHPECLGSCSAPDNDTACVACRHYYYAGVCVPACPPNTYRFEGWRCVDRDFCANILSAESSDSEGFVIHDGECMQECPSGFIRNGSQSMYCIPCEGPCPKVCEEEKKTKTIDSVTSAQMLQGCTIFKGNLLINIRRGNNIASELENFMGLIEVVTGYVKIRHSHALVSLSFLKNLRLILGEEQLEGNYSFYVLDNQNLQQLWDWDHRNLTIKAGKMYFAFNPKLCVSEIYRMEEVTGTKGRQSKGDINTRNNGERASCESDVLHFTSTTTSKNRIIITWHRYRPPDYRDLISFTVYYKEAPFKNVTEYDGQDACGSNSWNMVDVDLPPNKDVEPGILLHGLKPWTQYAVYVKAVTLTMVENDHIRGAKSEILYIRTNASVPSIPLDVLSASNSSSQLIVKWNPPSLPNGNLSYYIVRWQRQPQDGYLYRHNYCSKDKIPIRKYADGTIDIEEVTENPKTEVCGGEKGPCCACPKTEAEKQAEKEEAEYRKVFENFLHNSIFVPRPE
Insulin-like growth factor 1 receptor, sequence (P08069 741-1367 limits assumed): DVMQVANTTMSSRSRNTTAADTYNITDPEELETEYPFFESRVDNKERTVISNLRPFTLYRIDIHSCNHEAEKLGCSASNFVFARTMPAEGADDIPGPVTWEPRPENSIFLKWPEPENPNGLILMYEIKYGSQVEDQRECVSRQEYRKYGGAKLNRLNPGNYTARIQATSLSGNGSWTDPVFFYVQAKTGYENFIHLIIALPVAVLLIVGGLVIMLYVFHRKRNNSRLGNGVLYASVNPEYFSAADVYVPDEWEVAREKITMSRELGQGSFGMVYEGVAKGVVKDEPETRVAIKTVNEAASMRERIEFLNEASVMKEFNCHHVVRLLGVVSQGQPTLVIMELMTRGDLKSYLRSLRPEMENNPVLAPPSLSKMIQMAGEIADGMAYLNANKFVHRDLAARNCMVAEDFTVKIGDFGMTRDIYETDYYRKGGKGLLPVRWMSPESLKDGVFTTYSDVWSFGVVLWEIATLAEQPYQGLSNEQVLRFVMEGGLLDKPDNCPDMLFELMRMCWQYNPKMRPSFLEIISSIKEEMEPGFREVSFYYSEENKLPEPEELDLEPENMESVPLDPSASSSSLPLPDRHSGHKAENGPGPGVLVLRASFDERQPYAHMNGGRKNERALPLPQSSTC
Insulin receptor, sequence (P06213 28-758 limits assumed): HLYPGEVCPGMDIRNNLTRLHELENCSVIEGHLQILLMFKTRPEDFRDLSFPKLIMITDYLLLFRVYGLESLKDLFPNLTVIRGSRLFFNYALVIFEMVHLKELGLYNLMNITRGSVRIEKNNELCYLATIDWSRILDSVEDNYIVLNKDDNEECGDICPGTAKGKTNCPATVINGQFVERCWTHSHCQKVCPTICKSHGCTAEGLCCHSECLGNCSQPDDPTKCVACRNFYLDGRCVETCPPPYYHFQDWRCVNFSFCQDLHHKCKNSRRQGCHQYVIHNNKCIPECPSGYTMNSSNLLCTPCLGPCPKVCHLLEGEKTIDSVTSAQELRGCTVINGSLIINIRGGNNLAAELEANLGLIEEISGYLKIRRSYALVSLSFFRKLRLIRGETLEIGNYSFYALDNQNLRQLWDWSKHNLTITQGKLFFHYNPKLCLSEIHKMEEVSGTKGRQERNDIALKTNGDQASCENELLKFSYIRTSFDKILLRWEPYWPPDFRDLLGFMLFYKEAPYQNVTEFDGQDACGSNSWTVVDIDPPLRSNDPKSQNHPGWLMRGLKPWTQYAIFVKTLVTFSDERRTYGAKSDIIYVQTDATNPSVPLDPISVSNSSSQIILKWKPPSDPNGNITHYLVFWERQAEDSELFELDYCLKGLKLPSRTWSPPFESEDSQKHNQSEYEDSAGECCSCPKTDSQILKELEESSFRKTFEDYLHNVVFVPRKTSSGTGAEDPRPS
Insulin receptor, sequence (P06213 763-1382 limits assumed): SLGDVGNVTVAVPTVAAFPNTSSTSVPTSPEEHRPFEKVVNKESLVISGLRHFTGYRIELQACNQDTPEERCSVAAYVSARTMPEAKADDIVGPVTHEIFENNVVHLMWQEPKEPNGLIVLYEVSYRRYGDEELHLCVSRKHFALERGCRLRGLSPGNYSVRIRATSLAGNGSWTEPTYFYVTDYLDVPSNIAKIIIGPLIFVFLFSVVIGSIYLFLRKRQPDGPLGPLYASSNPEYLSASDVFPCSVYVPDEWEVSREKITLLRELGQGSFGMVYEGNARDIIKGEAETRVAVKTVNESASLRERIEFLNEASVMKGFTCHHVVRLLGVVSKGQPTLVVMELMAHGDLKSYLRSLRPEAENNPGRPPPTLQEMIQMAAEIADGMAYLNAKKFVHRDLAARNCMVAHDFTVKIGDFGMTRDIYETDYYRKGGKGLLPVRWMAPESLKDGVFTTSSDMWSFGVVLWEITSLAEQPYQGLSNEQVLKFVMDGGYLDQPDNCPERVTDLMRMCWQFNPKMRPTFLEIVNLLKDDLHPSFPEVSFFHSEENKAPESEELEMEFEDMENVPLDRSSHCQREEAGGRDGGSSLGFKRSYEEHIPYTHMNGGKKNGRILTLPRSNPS
RAC-alpha serine/threonine-protein kinase, sequence (P31749 whole entry): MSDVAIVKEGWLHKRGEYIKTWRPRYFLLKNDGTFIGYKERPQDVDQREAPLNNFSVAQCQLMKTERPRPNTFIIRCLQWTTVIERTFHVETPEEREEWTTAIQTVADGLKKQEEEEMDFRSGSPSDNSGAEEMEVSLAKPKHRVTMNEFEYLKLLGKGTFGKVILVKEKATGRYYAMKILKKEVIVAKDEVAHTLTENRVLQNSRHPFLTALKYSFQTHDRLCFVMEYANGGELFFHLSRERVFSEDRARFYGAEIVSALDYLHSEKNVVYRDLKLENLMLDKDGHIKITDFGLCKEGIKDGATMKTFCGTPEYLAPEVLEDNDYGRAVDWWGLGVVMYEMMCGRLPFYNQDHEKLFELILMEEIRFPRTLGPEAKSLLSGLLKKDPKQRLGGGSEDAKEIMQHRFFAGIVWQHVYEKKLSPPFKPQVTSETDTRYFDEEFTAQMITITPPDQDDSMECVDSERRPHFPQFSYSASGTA
Ribosomal protein S6 kinase beta-1, sequence (P23443 whole entry, canonical isoform): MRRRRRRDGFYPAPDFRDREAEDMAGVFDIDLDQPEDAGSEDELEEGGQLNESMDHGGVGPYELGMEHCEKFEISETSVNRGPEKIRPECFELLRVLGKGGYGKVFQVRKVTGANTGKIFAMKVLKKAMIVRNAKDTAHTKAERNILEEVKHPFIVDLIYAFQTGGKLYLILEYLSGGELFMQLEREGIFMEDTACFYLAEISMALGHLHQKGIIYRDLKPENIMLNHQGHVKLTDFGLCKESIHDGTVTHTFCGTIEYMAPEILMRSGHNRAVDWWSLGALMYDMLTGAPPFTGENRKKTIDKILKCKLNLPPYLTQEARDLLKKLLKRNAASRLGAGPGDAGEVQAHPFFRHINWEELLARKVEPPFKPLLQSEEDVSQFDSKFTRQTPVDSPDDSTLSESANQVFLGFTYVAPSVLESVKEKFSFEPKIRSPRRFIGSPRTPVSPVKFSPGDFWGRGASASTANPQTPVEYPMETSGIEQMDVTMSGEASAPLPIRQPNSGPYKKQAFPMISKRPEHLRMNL

- IC50 [1]: 326 µM
Compound: c1cc(-c2cc[nH]n2)ccn1

- IC50 [1]: 200 µM
Compound: NC(=O)c1[nH]ncc1N

- IC50 [1]: 97.5 µM
Compound: NC(=O)c1cccc2cc[nH]c12

- IC50 [1]: 313 µM
Compound: Nc1cc(-c2ccco2)n[nH]1

- IC50 [2]: > 10 µM
- IC50 [3]: 5.69 µM
- IC50 (Aurora kinase A): 0.39 µM
- IC50 [4]: 0.28 µM
- IC50 [5]: > 10 µM
- IC50 [6]: > 10 µM
- IC50 [7]: 0.1 µM
- IC50 (Insulin receptor): > 10 µM
- IC50 [8]: 0.99 µM
- IC50 [9]: > 10 µM
- IC50 [10]: 6.34 µM
- IC50 [11]: > 10 µM
- IC50 [12]: > 10 µM
- IC50 [13]: 0.84 µM
- IC50 [14]: 0.37 µM
Compound: Nc1nccc(-c2ccc3c(N)n[nH]c3c2)n1

- IC50 [14]: 7.28 µM
Compound: Nc1cc(-c2ccc3c(N)n[nH]c3c2)ccn1

- IC50 [1]: 50.8 µM
Compound: Nc1nc(N)c2[nH]cnc2n1 [2,6-DIAMINOPURINE]

- IC50 [1]: 95.1 µM
Compound: c1ccc(-c2nccs2)cc1 [2-PHENYLTHIAZOLE]

- IC50 [1]: 376 µM
Compound: Nc1cc2ccccc2cn1 [ISOQUINOLIN-3-AMINE]

— ChEMBL document CHEMBL1687694, “Aminoindazole PDK1 Inhibitors: A Case Study in Fragment-Based Drug Discovery” (ACS Med Chem Lett, 2010)
